From patent US20060233709A1, “Method for identifying novel treatments of inflammatory disease in the gut” (priority 2003, published 2006) come the findings set out here.

Data set [1] has as its system TNFα. Conditions: co-administration with PSA from 3 to 8 d.p.f.
Data set [2] relates to zebrafish larvae with PSA-induced IBD. Briefly: Histology (haematoxylin and eosin sections) of gut in PSA-induced IBD. The class given is in vivo.
The test system is the same in data set [3]. Briefly: In vivo examination of gut architecture and motility (quercetin labelling) in PSA-induced IBD. The settings on record: for Rescue of the IBD phenotype: IBD induced with PSA 3 to 5 d.p.f., drug added with PSA from 5 d.p.f.
Data set [4] deals with zebrafish. Briefly: DMSO tolerance of zebrafish. Conditions: in vivo. The text has this: Moreover, the inventors have discovered that zebrafish are also DMSO (dimethyl sulphoxide) tolerant. This is important as DMSO is used as a solvent to dissolve many drugs. The inventors have established that zebrafish can tolerate 1% DMSO. Thus, a candidate drug or other test substance may be dissolved in DMSO and administered to zebrafish by adding to the fish water to give a final concentration of DMSO of at least up to 1%. This is employed in various preferred aspects and embodiments of the present invention.

The subject of data set [5] is zebrafish larvae. Description: Suitability of fluorescent stains for in vivo gut visualisation. As for the experimental part: In vivo labelling was achieved by rearing fish in a suspension of 0.05% quercetin (Sigma) for a minimum of 2 hours. To observe gut architecture and motility, larvae were anaesthetised larvae by immersion in 0.2 mg/ml 3-amino benzoic acid ethylester (MS222) (Sigma). Gut architecture and motility can be observed using the FITC and GFP filter sets.
Visualisation is achieved by the administration of a fluorescent dye to the embryo medium. The dye is swallowed by the fish but not readily absorbed and therefore fills the entire gut.
When viewed under a fluorescent microscope, the crypts and villi of the gut were apparent as the unstained tissue of the gut wall was highlighted in contrast to the fluorescent medium that filled the gut lumen. In addition, as staining can be performed in vivo, waves of peristalsis were observed (as indicated in the different positions of the gut wall).

Molecules are shown by their SMILES. Entries after “also recorded” stand apart in the source; their conditions may differ.

Regarding `O=C1CCC(N2C(=O)c3ccccc3C2=O)C(=O)N1` (stereo not drawn) [thalidomide], the TNFα expression result in data set [1] is “down-regulation of TNFα expression”. Moreover, the “Rescue / improvement in gut histology” value in data set [2] (co-administration with PSA from 3 to 8 d.p.f.) is listed as “failed to show improvement; also recorded: neither rescues the disease changes”. In addition, the “Rescue of the in vivo disease phenotype” value in data set [3] (co-administration with PSA from 3 to 8 d.p.f., observed at 8 d.p.f.) is recorded as “failed to rescue the in vivo disease phenotype; also recorded: neither rescues the disease changes”.
For `Nc1ccc(O)c(C(=O)O)c1` [5-ASA, 5-amino salicylic acid], in data set [2] (drug given after PSA induction), the “Effect when administered after the induction of disease changes” value is “effective when administered after the induction of disease changes”. Also, the “Prevention/rescue of disease changes when co-administered with PSA” value in data set [2] (effective dose co-administered with PSA, histological analysis) is reported as “able to prevent/rescue disease changes”. Moreover, the “Rescue of the IBD phenotype” value in data set [3] is “Rescue of the IBD phenotype was seen”; in data set [3] (listed as salicylic acid) it was “rescue of the disease phenotype”.
Regarding `C[S+](C)[O-]` [DMSO, dimethyl sulphoxide], the “Tolerated DMSO concentration in fish water” value in data set [4] amounted to 1%.
Consider `O=c1c(O)c(-c2ccc(O)c(O)c2)oc2cc(O)cc(O)c12` [quercetin], for which the “Toxicity as in vivo gut stain” value in data set [5] was “low toxicity”.
